Assay results published in patent publication US20240368092A1, “2,4-Dihydro-3H-1,2,4-Triazol-3-One P2X7 Antagonists” (Breye Therapeutics ApS, priority 2021, published 2024).

Legend:
Assay type in all cases: cell-based
human P2X7 channel = target: T1, human P2X7 channel (Homo sapiens, UniProt Q99572); experiment: human P2X7 channel assay by automated patch-clamp (QPatch 16X); details: HEK-293 cells expressing P2X7; current evoked by 100 microM BzATP; whole-cell, held at -80 mV; read-out: human Q-Patch (activity range)
T1 construct: expressed in transfected cells; host or cells: HEK-293
T1 sequence (Q99572 1-595): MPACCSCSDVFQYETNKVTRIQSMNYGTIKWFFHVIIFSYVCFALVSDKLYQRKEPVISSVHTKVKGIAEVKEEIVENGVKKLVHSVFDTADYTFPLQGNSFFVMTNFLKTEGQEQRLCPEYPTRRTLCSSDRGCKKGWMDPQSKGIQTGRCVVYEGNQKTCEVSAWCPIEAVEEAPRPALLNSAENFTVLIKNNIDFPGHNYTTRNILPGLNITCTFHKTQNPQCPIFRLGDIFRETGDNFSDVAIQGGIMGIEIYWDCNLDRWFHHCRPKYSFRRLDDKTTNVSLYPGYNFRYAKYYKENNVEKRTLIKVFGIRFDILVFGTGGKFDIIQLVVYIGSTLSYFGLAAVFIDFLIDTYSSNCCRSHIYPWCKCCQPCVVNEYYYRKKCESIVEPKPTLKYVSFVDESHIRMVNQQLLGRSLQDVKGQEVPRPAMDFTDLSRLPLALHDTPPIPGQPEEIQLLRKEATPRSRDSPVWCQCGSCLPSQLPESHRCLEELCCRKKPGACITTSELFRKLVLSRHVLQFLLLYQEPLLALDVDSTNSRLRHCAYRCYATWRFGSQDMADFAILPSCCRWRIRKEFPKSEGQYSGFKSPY
Description: In order to directly monitor the block of P2X7 channel, an electrophysiological assay was developed and implemented on the QPatchl6X automated electrophysiology instrument.
HEK-293 cells expressing the P2X7 channels were cultured in modified EMEM.
72 hours before experiment, 5 million cells were seeded onto T225 flasks. Just before the experiment cells were washed twice, detached from the flask with trypsin-EDTA, re-suspended in the suspension solution and placed on the QPatch 16x.
The compounds (20 mM in a 100% DMSO) stored at −20° C. were prepared the day of the experiment (a first dilution 1:20 in 100% DMSO to prepare a 1 mM stock solution, then a 1 microM solution in external solution+a serial dilution 1:10).
The standard whole-cell voltage clamp experiments were performed at room temperature. From these experiments the multihole technology was used and the data were sampled at 2 KHz.
The intracellular solution contained (mM) 135 CsF, 10 NaCl, 1 EGTA, 10 HEPES, (pH 7.2 with CsOH) whereas the extracellular contained (mM) 145 NaCl, 4 KCl, 0.5 MgCl2, 1 CaCl2, 10 HEPES, 10 Glc (pH 7.4 with NaOH).
After establishment of the seal and the passage in the whole cell configuration, the cells were held at −80 mV. The P2XR7 current was evoked by applying 100 microM of BzATP alone (4 times) and then in the presence increasing concentrations of the compound under investigation (1, 10, 100 and 1000 nM).
The pre-incubation periods 5 to 8 contain increasing concentrations of the compound of interest (1, 10, 100 and 1000 nM), as illustrated in FIGURE (application protocol).
The maximal inward current evoked by BzATP in absence or presence of increasing concentrations of the compounds under investigation was measured and normalized. The potential […] effect was measured as % of control and as IC50 determined fitting the dose-response curves data with the following equation:
Here are reported the potency ranges as A, B, C and D, where A is <10 nM; B is 10 nM-100 nM, C is 0.1-1 μM, D is 1-10 μM.

humanP2X7 = target: T2, humanP2X7 (Homo sapiens, UniProt Q99572); experiment: P2X7 channel calcium-influx assay (Fluo-8, FLIPR TETRA), human P2X7; details: HEK-293 cells stably transfected with P2X7; Bz-ATP at EC80; low divalent cation buffer; read-out: humanP2X7 (activity range)
T2 construct: expressed in transfected cells; host or cells: HEK-293
T2 sequence (Q99572 1-595): T1 sequence (Q99572 1-595)
Description: (§1) Extracellular binding of Bz-ATP to P2X7 receptor opens the channel and allows Ca^2+ influx into the cells. This Ca^2+ entry was measured in HEK-293 cells stably transfected with P2X7 receptor using Screen Quest™ Fluo-8 No Wash Calcium Assay Kit (AAt Bioquest®, cat. 36316). Once inside the cell, the lipophilic blocking groups of Fluo-8 are cleaved by non-specific cell esterases, resulting in a negatively-charged fluorescent dye that stays inside cells. Its fluorescence increases upon binding to calcium. When HEK-293/P2X7 cells are stimulated with Bz-ATP, Ca^2+ enters the cells and the fluorescence of Fluo-8 NW increases. The dye has an absorption spectrum compatible with excitation at 488 nm by argon laser sources and its emission wavelength is in the range of 515-575 nm.
(§2) HEK-293 cells stably transfected with P2X7 receptor were seeded overnight in growth medium at 10,000 to 20,000 cells/well in 384-well plate. 24 hours later, the medium was removed, and the cells were pre-loaded at RT for 1 hour with 20 μL/w of Fluo-8 NW. Then 10 μL/w of test compounds and reference antagonist A438079 at 3×-concentration were injected with the FLIPRTETRA and the kinetic response over a period of five minutes was monitored. A second injection of 15 μL/w of 3× reference activator (Bz-ATP at EC80) was performed with the FLIPR TETRA and the signal of the emitted fluorescence was recorded for additional three minutes. All the experiment was carried out in a Low Divalent Cation Assay Buffer (0.3 mM Ca^2+ and 0 mM Mg^2+). The effect of the test compounds was measured as percent inhibition vs the reference antagonist and IC50 values were calculated accordingly. Here are reported the potency ranges as A, B, C and D, where A is <200 nM; B is 200 nM-1 μM, C is 1-10 μM, D is 10-30 μM.

mouseP2X7 = target: T3, mouseP2X7 (Mus musculus, UniProt Q9Z1M0); experiment: P2X7 channel calcium-influx assay (Fluo-8, FLIPR TETRA), mouse P2X7; details: HEK-293 cells stably transfected with P2X7; Bz-ATP at EC80; low divalent cation buffer; read-out: mouseP2X7 (activity range)
T3 construct: expressed in transfected cells; host or cells: HEK-293
T3 sequence (Q9Z1M0 1-595): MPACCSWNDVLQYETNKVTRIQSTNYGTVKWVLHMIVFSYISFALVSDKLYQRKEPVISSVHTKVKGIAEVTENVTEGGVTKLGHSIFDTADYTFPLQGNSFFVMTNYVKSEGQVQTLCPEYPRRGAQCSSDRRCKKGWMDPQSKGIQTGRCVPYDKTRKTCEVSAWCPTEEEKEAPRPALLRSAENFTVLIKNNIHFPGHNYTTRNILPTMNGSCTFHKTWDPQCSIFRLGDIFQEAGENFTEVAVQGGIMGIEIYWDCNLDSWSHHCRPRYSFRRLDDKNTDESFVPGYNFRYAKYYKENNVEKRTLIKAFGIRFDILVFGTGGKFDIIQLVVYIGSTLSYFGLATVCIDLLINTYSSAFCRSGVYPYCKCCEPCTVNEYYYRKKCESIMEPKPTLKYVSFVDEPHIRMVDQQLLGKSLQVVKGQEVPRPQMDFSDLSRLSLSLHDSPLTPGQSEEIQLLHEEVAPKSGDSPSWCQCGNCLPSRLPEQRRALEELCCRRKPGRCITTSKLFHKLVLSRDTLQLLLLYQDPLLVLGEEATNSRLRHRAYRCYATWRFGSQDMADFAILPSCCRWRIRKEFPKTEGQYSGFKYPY
Description: as §1, §2

ratP2X7 = target: T4, ratP2X7 (Rattus norvegicus, UniProt Q64663); experiment: P2X7 channel calcium-influx assay (Fluo-8, FLIPR TETRA), rat P2X7; details: HEK-293 cells stably transfected with P2X7; Bz-ATP at EC80; low divalent cation buffer; read-out: ratP2X7 (activity range)
T4 construct: expressed in transfected cells; host or cells: HEK-293
T4 sequence (Q64663 1-595): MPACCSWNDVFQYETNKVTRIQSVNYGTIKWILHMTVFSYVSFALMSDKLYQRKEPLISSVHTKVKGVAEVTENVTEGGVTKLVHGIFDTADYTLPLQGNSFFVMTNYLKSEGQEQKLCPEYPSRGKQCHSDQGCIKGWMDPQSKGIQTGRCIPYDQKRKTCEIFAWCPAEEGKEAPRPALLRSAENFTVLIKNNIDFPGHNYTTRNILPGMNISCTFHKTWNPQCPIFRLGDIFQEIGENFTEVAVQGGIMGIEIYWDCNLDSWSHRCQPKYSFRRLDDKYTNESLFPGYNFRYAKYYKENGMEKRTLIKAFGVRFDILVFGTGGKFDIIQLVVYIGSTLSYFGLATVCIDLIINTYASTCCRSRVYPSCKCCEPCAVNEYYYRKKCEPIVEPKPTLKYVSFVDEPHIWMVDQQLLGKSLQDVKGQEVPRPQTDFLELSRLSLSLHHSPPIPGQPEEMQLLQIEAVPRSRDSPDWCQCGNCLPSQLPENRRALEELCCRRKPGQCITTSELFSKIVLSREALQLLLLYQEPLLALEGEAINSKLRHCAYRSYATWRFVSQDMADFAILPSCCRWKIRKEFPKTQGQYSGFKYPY
Description: as §1, §2

SMILES | IC50 (human P2X7 channel) [nM] | IC50 (humanP2X7) [nM] | IC50 (mouseP2X7) [µM] | IC50 (ratP2X7) [nM]
Cn1nc(Cc2c(F)cccc2Cl)n(CC2CCCCC2)c1=O [Example 2, 5-(2-chloro-6-fluorobenzyl)-4-(cyclohexylmethyl)-2-methyl-2,4-dihydro-3H-1,2,4-triazol-3-one] | < 10 | 200 to 1000 | 0.2 to 1 | < 200
Cn1nc(Cc2c(F)cccc2Cl)n(CCN2CCOCC2)c1=O [Example 22, 5-(2-chloro-6-fluorobenzyl)-2-methyl-4-(2-morpholinoethyl)-2,4-dihydro-3H-1,2,4-triazol-3-one] | 1000 to 10000 | 10000 to 30000 | 10 to 30 | 10000 to 30000
Cn1nc(Cc2ccccc2F)n(CC2CCC(F)(F)CC2)c1=O [Example 26, 4-((4,4-difluorocyclohexyl)methyl)-5-(2-fluorobenzyl)-2-methyl-2,4-dihydro-3H-1,2,4-triazol-3-one] | 100 to 1000 | 200 to 1000 | 1 to 10 | < 200
Cn1nc(Cc2c(F)cccc2Cl)n(CC2CCCCCC2)c1=O [Example 12, 5-(2-chloro-6-fluorobenzyl)-4-(cycloheptylmethyl)-2-methyl-2,4-dihydro-3H-1,2,4-triazol-3-one] | < 10 | < 200 | < 0.2 | < 200
Cn1nc(Cc2c(F)cccc2Cl)n(CCC2CCC(F)(F)CC2)c1=O [Example 15, 5-(2-chloro-6-fluorobenzyl)-4-(2-(4,4-difluorocyclohexyl)ethyl)-2-methyl-2,4-dihydro-3H-1,2,4-triazol-3-one] | 10 to 100 | < 200 | 1 to 10 | < 200
Cn1nc(CC2CCCCC2)n(Cc2ccnc(C(F)(F)F)c2)c1=O [Example 13, 5-(cyclohexylmethyl)-2-methyl-4-((2-(trifluoromethyl)pyridin-4-yl)methyl)-2,4-dihydro-3H-1,2,4-triazol-3-one] | 1000 to 10000 | 10000 to 30000 | 10 to 30 | 10000 to 30000

Now from value to molecule:

IC50 (human P2X7 channel) [nM] | IC50 (humanP2X7) [nM] | IC50 (mouseP2X7) [µM] | IC50 (ratP2X7) [nM] | SMILES
100 to 1000 | 200 to 1000 | 1 to 10 | 200 to 1000 | Cn1nc(Cc2ccc(F)cc2Cl)n(CCC2CCC(F)(F)CC2)c1=O [Example 36, 5-(2-chloro-4-fluorobenzyl)-4-(2-(4,4-difluorocyclohexyl)ethyl)-2-methyl-2,4-dihydro-3H-1,2,4-triazol-3-one]
10 to 100 | < 200 | < 0.2 | < 200 | O=c1n(CC(F)F)nc(Cc2c(F)cccc2Cl)n1CC1CCC(F)(F)CC1 [Example 58, 5-[(2-chloro-6-fluorophenyl)methyl]-4-[(4,4-difluorocyclohexyl)methyl]-2-(2,2-difluoroethyl)-2,4-dihydro-3H-1,2,4-triazol-3-one]
10 to 100 | < 200 | 0.2 to 1 | < 200 | Cn1nc(Cc2ccccc2Cl)n(CC2CCC(F)(F)CC2)c1=O [Example 42, 5-(2-chlorobenzyl)-4-((4,4-difluorocyclohexyl)methyl)-2-methyl-2,4-dihydro-3H-1,2,4-triazol-3-one]
1000 to 10000 | 1000 to 10000 | 10 to 30 | 1000 to 10000 | Cn1nc(Cc2c(F)cccc2Cl)n(CC2(C)CCCCCC2)c1=O [Example 56, 5-[(2-chloro-6-fluorophenyl)methyl]-2-methyl-4-[(1-methylcycloheptyl)methyl]-2,4-dihydro-3H-1,2,4-triazol-3-one]
1000 to 10000 | 200 to 1000 | 10 to 30 | 1000 to 10000 | Cn1nc(Cc2ccc(F)cc2Cl)n(CCC2CCC(C)(C)CC2)c1=O [Example 41, 5-(2-chloro-4-fluorobenzyl)-4-(2-(4,4-dimethylcyclohexyl)ethyl)-2-methyl-2,4-dihydro-3H-1,2,4-triazol-3-one]
1000 to 10000 | 1000 to 10000 | 10 to 30 | 200 to 1000 | CCn1nc(Cc2c(F)cccc2Cl)n(CC2CCC(F)(F)C2)c1=O (stereo not drawn) [Example 65, 5-[(2-chloro-6-fluorophenyl)methyl]-4-[(3,3-difluorocyclopentyl)methyl]-2-ethyl-2,4-dihydro-3H-1,2,4-triazol-3-one]
